Values after ≈ are worked out from the molar mass of the structure shown.
Experiments:
[1] = Poste, Biol. Cell 47; 19 (1983); cited from earlier work
[2] = Toxicity / tolerated dose in mice; settings: mouse, in vivo
From the text: The liposome-encapsulated Amp B may then be administered to a mammal infected with a fungal infection.

[3] = system: yeast species, clinical isolates; test: In vitro antifungal activity summarized over the 19 yeast strains; format: cell-based
Method: In vitro tests were conducted to determine the effect of free Amp B, Amp B encapsulated in nor-sterol-containing liposomes, (L-Amp B), Amp B encapsulated in cholesterol-containing liposomes (L-Amp B-C) and Amp B in ergosterol-containing liposomes (L-Amp B-E). Desoxycholate free Amphotericin B was obtained from E. R. Squibb & Sons, Inc. Amp B was encapsulated in non-sterol containing liposomes by the method described by Lopez-Berestein, et al., and summarized in Example 1, above. In order to obtain the different doses necessary, lipid concentration was held constant as the Amp B concentration was decreased. The concentration of Amp B within the liposome was determined by scanning in a UV absorption spectrophotometer (Gilford Instrument Laboratories, Oberlin, Ohio) at 405 nm after the Amp B was dissolved in methanol. […]
In vitro activity of free Amp B, L-Amp B, L-Amp B-C and L-Amp B-E was tested on the following yeast species, all clinical isolates obtained from the Clinical Microbiology Laboratories at the University of Texas M.D. Anderson Hospital and Tumor Institute at Houston: Candida albicans, C. tropicalis, C. parapsilosis, Torulopsis glabrata and Cryptococcus neoformans. […] Minimal fungicidal concentrations (MFC) were determined after incubation for 18 hours. […]

[4] = cited from earlier work
physchem = format: physicochemical; settings: organic solvent or mixture
Method: The lipids dimyristoyl phosphatidylcholine (DMPC) and dimyristoyl phosphatidylglycerol (DMPG) were obtained from Avanti Polar Lipids (Birmingham, Ala.), and desoxycholate-free Amp B was obtained from Dr. Dan Bonner (Squibb Pharmaceuticals, New Brunswick, N.J.). DMPC and DMPG were dissolved in chloroform in a molar ratio of 7:3 DMPC:DMPG. Amp B was dissolved in methanol at a concentration of 40 μg/ml and the Amp B solution added to the chloroform containing the DMPC and DMPG. This mixture was placed in a rotary evaporator (Rotavapor®; Brinkman Instruments, Westbury, N.Y.) until all organic solvents were removed. Normal saline was then added and the vesicles formed by gentle agitation. Using this method, to prepare enough liposome-encapsulated Amp B to make up a single dose for a 50 kg patient at a dose of 0.8 mg/kg body weight (as discussed in Example 4) requires the drying of at least 1 to 1.5 liters of the Amp B-methanol solution. Under controlled temperature and pressure conditions, approximately 3 to 4 hours are required to evaporate this volume of the Amp B-methanol solution.
Using this method, 640 μg of Amp B was dissolved in 1 ml of chloroform (containing 25 mg of the lipid mixture), a significant increase over the 40 μg/ml which can be dissolved in methanol as in the method described above. […]

[5] = intravenous administration; cited from earlier work
Aspergillus terreus = test: Treatment of cancer patient, Case 2; format: in vivo, human
Candida tropicalis = test: In vitro MFC, YNB tube dilution (Table 1); format: cell-based; settings: 18 h
Method: (§1) In vitro tests were conducted to determine the effect of free Amp B, Amp B encapsulated in nor-sterol-containing liposomes, (L-Amp B), Amp B encapsulated in cholesterol-containing liposomes (L-Amp B-C) and Amp B in ergosterol-containing liposomes (L-Amp B-E). Desoxycholate free Amphotericin B was obtained from E. R. Squibb & Sons, Inc. Amp B was encapsulated in non-sterol containing liposomes by the method described by Lopez-Berestein, et al., and summarized in Example 1, above. In order to obtain the different doses necessary, lipid concentration was held constant as the Amp B concentration was decreased. The concentration of Amp B within the liposome was determined by scanning in a UV absorption spectrophotometer (Gilford Instrument Laboratories, Oberlin, Ohio) at 405 nm after the Amp B was dissolved in methanol. Cholesterol or ergosterol, obtained from Avanti Polar Lipids (Birmingham, Ala.), was added to the chloroform DMPC:DMPG solution at a molar ratio of 7:3:4 (DMPC:DMPG:sterol).
(§2) In vitro activity of free Amp B, L-Amp B, L-Amp B-C and L-Amp B-E was tested on the following yeast species, all clinical isolates obtained from the Clinical Microbiology Laboratories at the University of Texas M.D. Anderson Hospital and Tumor Institute at Houston: Candida albicans, C. tropicalis, C. parapsilosis, Torulopsis glabrata and Cryptococcus neoformans. The YNB tube dilution method described by Shadomy, S., et al., "Susceptibility Testing with Antifungal Drugs." In Lennette, E. H., et al. (eds.), Manual of Clinical Microbiology, 3rd Ed. (Washington, D.C., American Society for Microbiology, 1980), pp. 647-653, hereby incorporated by reference, was used to perform all tests. All tubes were subcultured (10 μl ) onto Sabouraud-dextrose agar (SDA) (Scott/Randolph, Houston, Tex.) plates. Minimal fungicidal concentrations (MFC) were determined after incubation for 18 hours. The MFC was defined as the lowest concentration of Amp B that allowed no growth or growth of fewer than four colonies on the subculture plates.

Candida albicans = test: In vitro MFC, YNB tube dilution (Table 1); format: cell-based; settings: 18 h
Method: as §1, §2

Candida parapsilosis = test: In vitro MFC, YNB tube dilution (Table 1); format: cell-based; settings: 18 h
Method: as §1, §2

Candida neoformans = test: In vitro MFC, YNB tube dilution (Table 1); format: cell-based, Candida neoformans (Cryptococcus neoformans in method); settings: 18 h
Method: as §1, §2

C. albicans 336 = test: Survival of infected mice, effect of lipid composition (FIG. 3); format: in vivo, Hale-Stoner mice; settings: 1.6 mg Amp B/kg
Method: Hale-Stoner mice, 6-8 weeks old and weighing 20-25 g, were obtained from The University of Texas Science Park (Bastrop, Tex.). Mice (10 per group) were injected intravenously with Candida albicans strain 336. This strain was grown for 18 hours on SDA plates at 37° C., washed and resuspended in saline. The mice were injected in the tail vein with 0.2 ml of the suspension containing 7×10^5 colony-forming units. […] The mice were injected on the second day of infection with a single dose of Amphotericin B.
Amp B was encapsulated in sterol-free and sterol-containing liposomes prepared by the method described in Example 2, above. Amp B concentration was determined at 405 nm as described in Example 2.
The effect of the lipid composition of the liposome on the survival of mice infected with C. albicans 336 was also evaluated. Each liposome case shown in FIG. 3 used 1.6 mg Amp B in 200 mg total lipid/kg.

Candida glabrata = test: In vitro MFC, YNB tube dilution (Table 1); format: cell-based, Candida glabrata (Torulopsis glabrata in method); settings: 18 h
Method: as §1, §2

C. albicans = test: MFC of Amp B in different phospholipid compositions (Table 3); format: cell-based, Candida albicans; settings: effect of lipid composition
From the text: The compositions included one or more of the following: DMPC, DMPG, cholesterol (Chol), ergosterol (Erg), and stearylamine (SA).

[6] = system: systemic fungal infection (fungal liver abscesses, consistent with Aspergillus spp.); settings: human, in vivo

CCCCCCCCCCCCCCCCCCN [stearylamine]
toxicity in mammalian systems [1]: toxic in mammalian systems in that they cause damage to the liver

C[C@@H]1[C@H](O)[C@@H](C)/C=C/C=C/C=C/C=C/C=C/C=C/C=C/[C@H](O[C@@H]2O[C@H](C)[C@@H](O)[C@H](N)[C@@H]2O)C[C@@H]2O[C@](O)(C[C@@H](O)C[C@@H](O)[C@H](O)CC[C@@H](O)C[C@@H](O)CC(=O)O[C@H]1C)C[C@H](O)[C@H]2C(=O)O [Amp B, Amphotericin B]
LD50 [2]: ~1.2 mg/kg | MTD ([2]; read-out: maximum dose tolerated): 0.8 mg/kg | efficacy ranking in killing of the fungal strains [3]: Amp B being most effective, then L-Amp B, L-Amp B-C and, finally L-Amp B-E | solubility in aqueous solution [4]: insoluble in aqueous solution | solubility (physchem; chloroform with lipid mixture): 640 µg/mL (≈ 693 µM) | solubility (physchem; methanol): 40 µg/mL (≈ 43.3 µM) | toxic effects [5]: renal disfunction, anemia, fever and hypotension | response to non-liposomal Amp B therapy (Aspergillus terreus; intravenous): nasal lesions worsened in spite of Amp B therapy and new lung lesions appeared on chest x-ray examination | response to Amp B by aerosolization (Aspergillus terreus; total of 1.4 gm by aerosolization): without improvement | side effects of non-liposomal Amp B therapy (Aspergillus terreus; total of 2.4 gm intravenously): always associated with severe nausea, fever and chills | MFC (Candida tropicalis; strain 251): 3 μg/Amp B/ml | MFC (Candida tropicalis; strain 1324): 1.6 μg/Amp B/ml | MFC (Candida tropicalis; strain 1784): 3 μg/Amp B/ml | MFC (Candida tropicalis; strain 2463): 1.6 μg/Amp B/ml | MFC (Candida albicans; strain 57): 0.8 μg/Amp B/ml | MFC (Candida albicans; strain 306): 1.6 μg/Amp B/ml | MFC (Candida albicans; strain 704): 0.4 μg/Amp B/ml | MFC (Candida albicans; strain 1091): 0.8 μg/Amp B/ml | MFC (Candida parapsilosis; strain 139): 3 μg/Amp B/ml | MFC (Candida parapsilosis; strain 1341): > 25 μg/Amp B/ml | MFC (Candida parapsilosis; strain 2300): 3 μg/Amp B/ml | MFC (Candida neoformans; strain 222): 1.6 μg/Amp B/ml | MFC (Candida neoformans; strain 595): 0.4 μg/Amp B/ml | MFC (Candida neoformans; strain 843): 0.8 μg/Amp B/ml | MFC (Candida neoformans; strain 881): 1.6 μg/Amp B/ml | survival time over the controls (C. albicans 336): improved survival time over the controls | time to 50% survival (C. albicans 336; control 5 days): 10 days | MFC (Candida glabrata; strain 684): 3 μg/Amp B/ml | MFC (Candida glabrata; strain 1172): 1.6 μg/Amp B/ml | MFC (Candida glabrata; strain 1905): 3 μg/Amp B/ml | MFC (Candida glabrata; strain 2539): 3 μg/Amp B/ml | MFC (C. albicans): 1.6 μg of Amp B per ML | side effects of non-liposomal Amp B therapy [6]: fever and chills were observed

CCCCCCCCCCCCCCCCOP(=O)(O)OCCCCCCCCCCCCCCCC [dicetyl phosphate]
toxicity in mammalian systems [1]: toxic in mammalian systems in that they cause damage to the liver

— patent publication US4978654A, “Composition and method for treatment of disseminated fungal infections in mammals” (priority 1987, dated 1990)
